In patent US20240158446A1, “CYCLIC COMPOUND HAVING SELECTIVE INHIBITORY ACTION ON KRAS OVER HRAS AND NRAS” (CHUGAI SEIYAKU KABUSHIKI KAISHA, priority 2021, published 2024):
Like-named read-outs stand apart in the source and are kept apart here.

Assays:
[1] = target: GDP-bound HRAS wild-type protein (Homo sapiens, UniProt P01112); test: Binding to HRAS by surface plasmon resonance (SPR), Single Cycle Kinetics; conditions: for HRAS/KRAS (ratio of KD value for HRAS to KD value for KRAS): GDP-bound HRAS wild-type protein vs GDP-bound KRAS wild-type protein; for HRAS/KRAS (ratio of KD value with respect to GDP-bound HRAS wild-type protein to KD value with respect to KRAS): SPR KD ratio HRAS/KRAS, class symbols
GDP-bound HRAS wild-type protein, sequence (P01112 whole entry): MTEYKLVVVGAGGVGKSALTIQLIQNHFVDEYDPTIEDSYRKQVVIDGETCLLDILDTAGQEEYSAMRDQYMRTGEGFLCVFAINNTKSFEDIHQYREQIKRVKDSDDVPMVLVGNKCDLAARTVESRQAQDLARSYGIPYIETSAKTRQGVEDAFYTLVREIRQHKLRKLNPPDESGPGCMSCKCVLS

[2] = tested on: human lung cancer strain NCI-H441;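 note: cell proliferation inhibition after four days measured by CellTiter-Glo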
[3] = target: GDP-bound NRAS wild-type protein (Homo sapiens, UniProt P01111); test: Binding to NRAS by surface plasmon resonance (SPR), Single Cycle Kinetics; conditions: for NRAS/KRAS (ratio of KD value for NRAS to KD value for KRAS): GDP-bound NRAS wild-type protein vs GDP-bound KRAS wild-type protein; for NRAS/KRAS (ratio of KD value with respect to GDP-bound NRAS wild-type protein to KD value with respect to KRAS): SPR KD ratio NRAS/KRAS, class symbols
GDP-bound NRAS wild-type protein, sequence (P01111 whole entry): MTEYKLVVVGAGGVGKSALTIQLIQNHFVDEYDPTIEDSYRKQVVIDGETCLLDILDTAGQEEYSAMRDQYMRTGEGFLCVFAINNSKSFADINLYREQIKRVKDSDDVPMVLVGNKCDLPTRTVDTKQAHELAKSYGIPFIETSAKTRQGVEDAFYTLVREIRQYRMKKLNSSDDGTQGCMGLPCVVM

[4] = target: GDP-bound KRAS wild-type protein (Homo sapiens, UniProt P01116); test: Binding to KRAS by surface plasmon resonance (SPR), Single Cycle Kinetics
GDP-bound KRAS wild-type protein, sequence (P01116 whole entry): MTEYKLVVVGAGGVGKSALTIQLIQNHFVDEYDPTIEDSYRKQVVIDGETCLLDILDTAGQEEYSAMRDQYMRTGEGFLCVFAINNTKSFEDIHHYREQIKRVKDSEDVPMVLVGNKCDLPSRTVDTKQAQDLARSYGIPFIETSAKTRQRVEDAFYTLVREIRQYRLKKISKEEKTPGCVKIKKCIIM

[5] = SPR, Single Cycle Kinetics, 1:1 binding model, GDP-bound KRAS wild-type protein, read-out: KRAS KD
[6] = SPR Single Cycle Kinetics, GDP-bound KRAS wild-type protein, 1:1 binding model, read-out: KRAS KD
[7] = SPR, Single Cycle Kinetics, GDP-bound KRAS wild-type protein, read-out: KRAS KD
[8] = read-out: NCI-H441 cell proliferation inhibitory activity, 50% proliferation inhibitory concentration (IC50 value), NCI-H441, four days, CellTiter-Glo

Row | Compound | IC50 [2] [nM] | HRAS/KRAS (ratio of KD value for HRAS to KD value for KRAS) ([1]; SPR) | NRAS/KRAS (ratio of KD value for NRAS to KD value for KRAS) ([3]; SPR) | Kd [4, 7] [nM] | also measured
1 | CCO[C@@H]1C[C@H]2C(=O)NC3(CCC3)C(=O)N(C)[C@@H](C3CCCC3)C(=O)N(C)[C@H](C(=O)N3CCOCC3)CC(=O)N(C)[C@@H](C)C(=O)N[C@@H]([C@@H](C)CC)C(=O)N(C)CC(=O)N(C)[C@H]3C/C=C\CCN(C3=O)[C@@H](Cc3ccc(C(F)(F)F)cc3)C(=O)N(C)CC(=O)N[C@@H](CCc3cc(F)c(C(F)(F)F)c(F)c3)C(=O)N2C1 [PP1284] | 54.8 |  |  |  | HRAS/KRAS (ratio of KD value for HRAS to KD value for KRAS) ([1]; SPR, KD ratio class): A (a compound having 10 or more and less than 20 is denoted as A); NRAS/KRAS (ratio of KD value for NRAS to KD value for KRAS) ([3]; SPR, KD ratio class): AA (a compound having 20 or more is denoted as AA); Kd [4, 5]: 0.12 nM
2 | CC[C@H](C)[C@@H]1NC(=O)[C@H](COC)N(C)C(=O)C[C@@H](C(=O)N2CCCCC2)N(C)C(=O)[C@H](C2CCCC2)N(C)C(=O)C2(CC(C)(C)C2)NC(=O)[C@@H]2C[C@@H](OC(C)C)CN2C(=O)[C@H](CCc2ccc(Cl)c(Cl)c2)NC(=O)CN(C)C(=O)[C@H](Cc2ccc(C(F)(F)F)cc2)N2CC/C=C\C[C@@H](C2=O)N(C)C(=O)CN(C)C1=O [PP2671] | 26.3 |  |  |  | HRAS/KRAS (ratio of KD value with respect to GDP-bound HRAS wild-type protein to KD value with respect to KRAS) [1]: A (a compound having 10 or more and less than 20 is denoted as A); NRAS/KRAS (ratio of KD value with respect to GDP-bound NRAS wild-type protein to KD value with respect to KRAS) [3]: A (a compound having 10 or more and less than 20 is denoted as A); Kd [4, 6]: 0.67 nM
3 | CCO[C@@H]1C[C@H]2C(=O)NC3(CCC3)C(=O)N(C)[C@@H](C3CCCC3)C(=O)N(C)[C@H](C(=O)N(C)C)CC(=O)N(C)[C@@H](CC3CC3)C(=O)N[C@@H]([C@@H](C)CC)C(=O)N(C)CC(=O)N(C)[C@H]3C/C=C\CCN(C3=O)[C@@H](Cc3ccc(F)cc3)C(=O)N(C)CC(=O)N[C@@H](CCc3cc(F)c(Cl)c(F)c3)C(=O)N2C1 [PP1479] | 140 |  |  |  | HRAS/KRAS (ratio of KD value for HRAS to KD value for KRAS) ([1]; SPR, KD ratio class): B (a compound having 3 or more and less than 10 is denoted as B); NRAS/KRAS (ratio of KD value for NRAS to KD value for KRAS) ([3]; SPR, KD ratio class): A (a compound having 10 or more and less than 20 is denoted as A); Kd [4, 5]: 0.49 nM
4 | CCOC[C@H]1C(=O)N[C@@H]([C@@H](C)CC)C(=O)N(C)CC(=O)N(C)[C@H]2C/C=C\CCN(C2=O)[C@@H](Cc2ccc(C)cc2)C(=O)N(C)CC(=O)N[C@@H](CCc2ccc(C(F)(F)F)c(OC)c2)C(=O)N2C[C@H](OCC)C[C@H]2C(=O)NC2(CC(C)(C)C2)C(=O)N(C)[C@@H](C2CCCC2)C(=O)N(C)[C@H](C(=O)N(C)CC)CC(=O)N1C [PP2445] | 11.7 | B (a compound having 3 or more and less than 10 is denoted as B) | A (a compound having 10 or more and less than 20 is denoted as A) | 0.14 | 
5 | CCCO[C@@H]1C[C@H]2C(=O)NC3(CCC3)C(=O)N(C)[C@@H](C3CCCC3)C(=O)N(C)[C@H](C(=O)N3CCOCC3)CC(=O)N(C)[C@@H](CC(C)C)C(=O)N[C@@H]([C@@H](C)CC)C(=O)N(C)CC(=O)N(C)[C@H]3CCCCN(C3=O)[C@@H](Cc3ccc(C(F)(F)F)cc3)C(=O)N(C)CC(=O)N[C@@H](CCc3cc(F)c(C(F)(F)F)c(F)c3)C(=O)N2C1 [PP1159] | 13 | B (a compound having 3 or more and less than 10 is denoted as B) | C (A compound having a KD ratio of 0.1 or more and less than 3 is denoted as C) | 0.036 | 
6 | CC[C@H](C)[C@@H]1NC(=O)[C@@H]2CCCCCc3ccc(cc3)C[C@@H](C(=O)N(C)CC(=O)N[C@@H](CCc3ccc(C(F)(F)F)c(OC)c3)C(=O)N3CC4(CC4)C[C@H]3C(=O)NC3(CC(C)(C)C3)C(=O)N(C)[C@@H](C3CCCC3)C(=O)N(C)[C@H](C(=O)N(C)C)CC(=O)N2C)N2CC/C=C\C[C@@H](C2=O)N(C)C(=O)CN(C)C1=O [PP3074] |  | A (a compound having 10 or more and less than 20 is denoted as A) | A (a compound having 10 or more and less than 20 is denoted as A) | 0.025 | ratio of the KD value with respect to GDP-bound HRAS wild-type protein to the KD value with respect to KRAS ([1]; SPR): A (a compound having 10 or more and less than 20 is denoted as A); IC50 [2, 8]: 2.4 nM; ratio of the KD value with respect to GDP-bound NRAS wild-type protein to the KD value with respect to KRAS ([3]; SPR, KD(NRAS)/KD(KRAS)): A (a compound having 10 or more and less than 20 is denoted as A)
7 | CCCOC[C@H]1C(=O)N[C@@H]([C@@H](C)CC)C(=O)N(C)CC(=O)N(C)[C@H]2C/C=C\CCN(C2=O)[C@@H](Cc2ccc(C)cc2)C(=O)N(C)CC(=O)N[C@@H](CCc2cc(F)c(C(F)(F)F)c(F)c2)C(=O)N2C[C@H](OCC)C[C@H]2C(=O)NC2(CC(C)(C)C2)C(=O)N(C)[C@@H](CC2CCC2)C(=O)N(C)[C@H](C(=O)N(C)C)CC(=O)N1C [PP2752] | 70.3 |  |  |  | HRAS/KRAS (ratio of KD value with respect to GDP-bound HRAS wild-type protein to KD value with respect to KRAS) [1]: A (a compound having 10 or more and less than 20 is denoted as A); NRAS/KRAS (ratio of KD value with respect to GDP-bound NRAS wild-type protein to KD value with respect to KRAS) [3]: A (a compound having 10 or more and less than 20 is denoted as A); Kd [4, 6]: 1.2 nM
8 | CCC[C@H]1C(=O)N[C@@H]([C@@H](C)CC)C(=O)N(C)CC(=O)N(C)[C@H]2C/C=C\CCN(C2=O)[C@@H](Cc2ccc(C(F)(F)F)cc2)C(=O)N(C)CC(=O)N[C@@H](CCc2ccc(C(F)(F)F)c(OC)c2)C(=O)N2C[C@H](OCC)C[C@H]2C(=O)N(C)C2(CCC2)C(=O)N(C)[C@@H](C(CC)CC)C(=O)N(C)[C@H](C(=O)N(C)C)CC(=O)N1C [PP2382] | 4.6 | A (a compound having 10 or more and less than 20 is denoted as A) | A (a compound having 10 or more and less than 20 is denoted as A) | 0.12 | 
9 | CCO[C@@H]1C[C@H]2C(=O)NC3(CCC3)C(=O)N(C)[C@@H](C3CCCC3)C(=O)N(C)[C@H](C(=O)N3CCOCC3)CC(=O)N(C)[C@@H](Cc3ccc(Cl)c(Cl)c3)C(=O)N[C@@H]([C@@H](C)CC)C(=O)N(C)CC(=O)N(C)[C@H]3CCCCCN(C3=O)[C@@H](Cc3ccc(C(F)(F)F)cc3)C(=O)N(C)CC(=O)N[C@@H](CCc3cc(F)c(C(F)(F)F)c(F)c3)C(=O)N2C1 [PP1168] | 338 | A (a compound having 10 or more and less than 20 is denoted as A) | A (a compound having 10 or more and less than 20 is denoted as A) | 1.8 | 
10 | CCO[C@@H]1C[C@H]2C(=O)NC3(CC(C)(C)C3)C(=O)N(C)[C@@H](C3CCCC3)C(=O)N(C)[C@H](C(=O)N(C)CC)CC(=O)N(C)[C@H]3CCCC/C=C/c4ccc(cc4)C[C@@H](C(=O)N(C)CC(=O)N[C@@H](CCc4cc(F)c(C(F)(F)F)c(F)c4)C(=O)N2C1)N1CC/C=C\C[C@@H](C1=O)N(C)C(=O)CN(C)C(=O)[C@H]([C@@H](C)CC)NC3=O [PP1829] | 2.3 |  |  | 0.033 | HRAS/KRAS (KD ratio) ([1]; ratio of KD for GDP-bound HRAS wild-type protein to KD for KRAS, SPR): B (a compound having 3 or more and less than 10 is denoted as B); NRAS/KRAS (KD ratio) ([3]; ratio of KD for GDP-bound NRAS wild-type protein to KD for KRAS, SPR): A (a compound having 10 or more and less than 20 is denoted as A)
11 | CCC[C@H]1C(=O)N[C@@H]([C@@H](C)CC)C(=O)N(C)CC(=O)N(C)[C@H]2C/C=C\CCN(C2=O)[C@@H](Cc2ccc(C(F)(F)F)cc2)C(=O)N(C)CC(=O)N[C@@H](CCc2ccc(C(F)(F)F)c(OC)c2)C(=O)N2C[C@H](OCC)C[C@H]2C(=O)N(C)C2(CCC2)C(=O)N(C)[C@@H](C2CCCC2)C(=O)N(C)[C@H](C(=O)N2CCCCC2)CC(=O)N1C [PP3103, (2S,8S,12R,14S,20S,23S,27S,30S,36S,38Z)-20-cyclopentyl-12-ethoxy-8-[2-[3-methoxy-4-(trifluoromethyl)phenyl]ethyl]-4,16,19,22,26,32,35-heptamethyl-30-[(1S)-1-methylpropyl]-23-(piperidine-1-carbonyl)-27-propyl-2-[[4-(trifluoromethyl)phenyl]methyl]spiro[1,4,7,10,16,19,22,26,29,32,35-undecazatricyclo[34.5.1.0^10,14]dotetracont-38-ene-17,1′-cyclobutane]-3,6,9,15,18,21,25,28,31,34,42-undecone] |  | A (a compound having 10 or more and less than 20 is denoted as A) |  | 0.21 | ratio of the KD value with respect to GDP-bound HRAS wild-type protein to the KD value with respect to KRAS ([1]; SPR): A (a compound having 10 or more and less than 20 is denoted as A); IC50 [2, 8]: 21.5 nM; Kd ([4]; SPR, Single Cycle Kinetics, 1:1 binding model, read-out: KD value with respect to GDP-bound KRAS wild-type protein): 0.21 nM
